Consider 23 compounds from US20200031848A1, “AR-V7 INHIBITORS” (Hoffmann-La Roche Inc., priority 2016, published 2020).

Each structure is given as a SMILES string.

By microsomal CLint is commonly meant the capacity of the preparation to metabolise the compound, expressed as a volume cleared per time. Read a high microsomal CLint as faster metabolism. The IC50 is the concentration at which inhibition is half-maximal. A lower IC50 goes with higher potency.

The nature of one series: in vitro. To be noted: for microsomal CLint at 2 μM: pH 7.4. The method, then:
Microsomal incubations were carried out in 96-well plates in 5 aliquots of 40 μL each (one for each time point). […] Control incubations were performed replacing the NADPH-cofactor system with PBS. […] Incubations were performed in duplicates. Five time points over 40 minutes had been analyzed. The reactions were stopped by adding 12 volumes of 90% acetonitrile-water to incubation aliquots, followed by protein sedimentation by centrifuging at 5500 rpm for 5 minutes. Supernatants were analyzed using the HPLC system coupled with tandem mass spectrometer. The elimination constant (kel), half-life (t1/2) and intrinsic clearance (Clint) were determined in plot of […] versus time, using linear regression analysis: […]

The target in series [1] is T1, AR transcriptional activity (Homo sapiens, UniProt P10275, T878A).
T1 construct: The LNCaP eGFP cell line was stably transfected with an androgen-responsive probasin-derived promoter fused to an eGFP reporter; endogenous in cells; host or cells: LNCaP eGFP (LN-ARR2PB-eGFP) human prostate cancer cells
T1 sequence (P10275 1-920 T878A): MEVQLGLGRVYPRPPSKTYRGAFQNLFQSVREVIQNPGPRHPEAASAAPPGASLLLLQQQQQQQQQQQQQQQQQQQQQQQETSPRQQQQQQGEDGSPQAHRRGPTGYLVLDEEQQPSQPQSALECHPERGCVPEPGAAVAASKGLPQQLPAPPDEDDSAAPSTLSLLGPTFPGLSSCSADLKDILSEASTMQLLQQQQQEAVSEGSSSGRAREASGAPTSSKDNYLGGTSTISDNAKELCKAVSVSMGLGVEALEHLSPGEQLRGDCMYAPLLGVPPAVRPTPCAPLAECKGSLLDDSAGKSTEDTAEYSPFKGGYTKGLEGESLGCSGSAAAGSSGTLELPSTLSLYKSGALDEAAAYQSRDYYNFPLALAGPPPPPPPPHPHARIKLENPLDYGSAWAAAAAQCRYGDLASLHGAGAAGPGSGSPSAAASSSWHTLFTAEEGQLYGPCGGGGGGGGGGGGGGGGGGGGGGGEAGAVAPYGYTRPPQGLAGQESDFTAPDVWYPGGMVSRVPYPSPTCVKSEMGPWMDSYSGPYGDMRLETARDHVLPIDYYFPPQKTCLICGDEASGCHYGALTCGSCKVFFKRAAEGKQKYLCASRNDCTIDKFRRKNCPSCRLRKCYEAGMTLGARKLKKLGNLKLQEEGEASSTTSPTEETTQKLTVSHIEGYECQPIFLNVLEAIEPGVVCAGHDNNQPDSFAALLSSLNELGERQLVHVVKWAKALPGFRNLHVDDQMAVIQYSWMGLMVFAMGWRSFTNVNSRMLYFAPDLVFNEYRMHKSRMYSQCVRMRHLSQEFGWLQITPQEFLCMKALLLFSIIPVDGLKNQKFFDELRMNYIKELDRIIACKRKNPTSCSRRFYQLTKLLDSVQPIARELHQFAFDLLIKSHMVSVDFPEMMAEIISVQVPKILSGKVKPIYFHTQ
Kind of series: eGFP cellular AR transcription assay. Type of series: cell-based. To be noted: for inhibition at 1 µM: read-out: eGFP % inhib. at 1 μM. From the text: The DNA-binding domain is an attractive target for inhibition of AR dimerization and/or DNA binding. In silico computational drug discovery methods were used to conduct a virtual screen of >3 million purchasable lead-like compounds from the ZINC database (Irwin, J. et al.^11) to identify potential DBD binders. The in silico methods included large-scale docking, in-site rescoring and consensus voting procedures. It will be understood by a person of skill that COOH and NR2 may include the corresponding ions, for example carboxylate ions and ammonium ions, respectively. Alternatively, where the ions are shown, a person of skill in the art will appreciate that the counter ion may also be present. Furthermore, it will be appreciated by a person of skill that other moieties may include the corresponding ions, and where the ions are shown, a person of skill in the art will appreciate that the counter ion may also be present. […] Where the % inhibition, eGFP IC50 or the PSA IC50 has no value given, this may be because no measurement was taken or the value was not calculated, in the case of the % inhibition. In vitro identification of AR inhibitors targeting AR DBD The selected compounds were assessed with a non-destructive eGFP assay that quantifies levels of AR transcriptional activity, were identified (table below).
1. Cell Culture: LNCaP and PC3 human prostate cancer cells were obtained from American Type Culture Collection (ATCC, Manassas, Va.) and grown in RPMI 1640 medium supplemented with 5% fetal bovine serum (FBS) (Invitrogen). The LNCaP eGFP cell line was stably transfected with an androgen-responsive probasin-derived promoter fused to an eGFP reporter (LN-ARR2PB-eGFP) using a lentiviral approach, and were grown in phenol-red-free RPMI 1640 supplemented with 5% CSS. In-house developed MDV3100-resistant LNCaP cells were cultured in RPMI 1640 supplemented with 5% FBS and 10 μM MDV3100. All cells were maintained at 37° C. in 5% CO2.
2. eGFP cellular AR transcription assay: The AR transcriptional activity was assayed as previously described (Tavassoli, P., et al.^12).

On to `Clc1ncn(-c2csc(N3CCOCC3)n2)c1Br` [Example 44, 4-[4-(5-bromo-4-chloro-imidazol-1-yl)thiazol-2-yl]morpholine], for which the intrinsic metabolic clearance (microsomal CLint) at 2 μM in “in vitro” (human, microsomes) was 196 µL/min/mg.

On to `CC1CN(c2nc(-n3cc(Br)nc3Br)cs2)CCO1` (stereo not drawn) [Example 22, 4-[4-(2,4-dibromoimidazol-1-yl)thiazol-2-yl]-2-methyl-morpholine], for which, in series [1] (LNCaP eGFP cell line), the midpoint of inhibition, the IC50, lay at 0.4 µM. For the same compound, the microsomal CLint at 2 μM in “in vitro” (human, microsomes) amounted to 52 µL/min/mg.

`Clc1ncn(-c2csc(N3[C@@H]4CC[C@H]3COC4)n2)c1Cl` [Example 19, (1R,5S)-8-[4-(4,5-dichloroimidazol-1-yl)thiazol-2-yl]-3-oxa-8-azabicyclo[3.2.1]octane] registered a half-maximal inhibitory concentration (IC50) in series [1] (LNCaP eGFP cell line) of 0.32 µM. For the same compound, the microsomal CLint at 2 μM in the series “in vitro” (human, microsomes) came out at 42 µL/min/mg.

`N#Cc1cn(-c2csc(N3CCOCC3)n2)cn1` [Example 58, 1-(2-morpholinothiazol-4-yl)imidazole-4-carbonitrile]: in series [1], the inhibition at 1 µM amounted to 2%. The same compound showed an intrinsic metabolic clearance (microsomal CLint) at 2 μM in “in vitro” (human, microsomes) of 23 µL/min/mg.

As for `Brc1nccn1-c1csc(N2CCOCC2)n1` [Example 59, 4-[4-(2-bromoimidazol-1-yl)thiazol-2-yl]morpholine], the inhibition at 1 µM in series [1] was 35%. In addition, the intrinsic clearance (microsomal CLint) at 2 μM in “in vitro” (human, microsomes) was 42 µL/min/mg.

Turning to `c1cn(-c2csc(N3CCOCC3)n2)cn1` [Example 55, 4-(4-imidazol-1-ylthiazol-2-yl)morpholine], the inhibition at 1 µM in series [1] amounted to 17%. In addition, in “in vitro” (human, microsomes), the “metabolic stability in human hepatic microsomal test system (in words)” value (“metabolic stability” below) is listed as “high metabolic stability” and the intrinsic clearance (microsomal CLint) at 2 μM is 10 µL/min/mg.

In series [1] (LNCaP eGFP cell line), `CC1CN(c2nc(-n3cc(Br)nc3Br)cs2)C(C)CO1` (stereo not drawn) [Example 17, 4-[4-(2,4-dibromoimidazol-1-yl)thiazol-2-yl]-2,5-dimethyl-morpholine] came in with a concentration for half-maximal inhibition (IC50) of 0.19 µM. This compound also came in with a microsomal CLint at 2 μM in “in vitro” (human, microsomes) of 41 µL/min/mg.

On to `Clc1ncn(-c2csc(N3C[C@H]4CC[C@@H](C3)O4)n2)c1Cl` [Example 20, (1S,5R)-3-[4-(4,5-dichloroimidazol-1-yl)thiazol-2-yl]-8-oxa-3-azabicyclo[3.2.1]octane], for which the midpoint of inhibition in series [1] (LNCaP eGFP cell line), the IC50, lay at 0.25 µM. The compound further returned a microsomal CLint at 2 μM in “in vitro” (human, microsomes) of 40 µL/min/mg.

In series [1] (LNCaP eGFP cell line), `Brc1cn(-c2csc(N3CCOC4(CCCC4)C3)n2)c(Br)n1` [Example 18, 9-[4-(2,4-dibromoimidazol-1-yl)thiazol-2-yl]-6-oxa-9-azaspiro[4.5]decane] registered a concentration for half-maximal inhibition (IC50) of 0.2 µM. The “"No cofactor" control: role of CYP450 in metabolism” value in the series “in vitro” (NADPH-cofactor system replaced with PBS) is “not determined just by CYP450 activity”. Also, the “metabolic stability” value in “in vitro” (human hepatic microsomes) is recorded as “low stability”. The compound further gave a microsomal CLint at 2 μM in the series “in vitro” (human, microsomes) of 100 µL/min/mg.

Consider `OCc1ncn(-c2csc(N3CCOCC3)n2)c1Br` [Example 62, [5-bromo-1-(2-morpholinothiazol-4-yl)imidazol-4-yl]methanol], for which the “eGFP IC50” value in series [1] (LNCaP eGFP cell line) was “inact”. In addition, the intrinsic clearance (microsomal CLint) at 2 μM in the series “in vitro” (human, microsomes) came to 19 µL/min/mg.

On to `CCOC(=O)c1nc(Br)c(Br)n1-c1csc(N2CCOCC2)n1` [Example 56, ethyl 4,5-dibromo-1-(2-morpholinothiazol-4-yl)imidazole-2-carboxylate], for which, in series [1], the inhibition at 1 µM turned out to be 12%. In “in vitro” (human, microsomes), this compound came in with an intrinsic metabolic clearance (microsomal CLint) at 2 μM of 33 µL/min/mg.

For the compound `OCc1nc(Br)c(Br)n1-c1csc(N2[C@@H]3CC[C@H]2COC3)n1` [Example 36, [4,5-dibromo-1-[2-[(1R,5S)-3-oxa-8-azabicyclo[3.2.1]octan-8-yl]thiazol-4-yl]imidazol-2-yl]methanol], the IC50 in series [1] (LNCaP eGFP cell line) stood at 2.99 µM. In the series “in vitro” (human, microsomes), the “metabolic stability” value is recorded as “high metabolic stability” and the intrinsic metabolic clearance (microsomal CLint) at 2 μM was 10 µL/min/mg.

For the compound `Cc1nc(-c2ccccc2)cn1-c1csc(N2CCOCC2)n1` [Example 60, 4-[4-(2-methyl-4-phenyl-imidazol-1-yl)thiazol-2-yl]morpholine], the inhibition at 1 µM in series [1] amounted to 3%. This compound displayed a microsomal CLint at 2 μM in the series “in vitro” (human, microsomes) of 44 µL/min/mg.

Turning to `OCc1c(Br)ncn1-c1csc(N2CCOCC2)n1` [Example 61, [5-bromo-3-(2-morpholinothiazol-4-yl)imidazol-4-yl]methanol], in series [1], the inhibition at 1 µM amounted to 31%. Further, in the series “in vitro” (human, microsomes), the “metabolic stability” value is “high metabolic stability” and the microsomal CLint at 2 μM was 15 µL/min/mg.

Compound `OCc1nc(Br)c(Br)n1-c1csc(N2CCOCC2)n1` [Example 57, [4,5-dibromo-1-(2-morpholinothiazol-4-yl)imidazol-2-yl]methanol] came in with a 50% inhibitory concentration (IC50) in series [1] (LNCaP eGFP cell line) of 6.45 µM. For the same compound, in “in vitro” (human, microsomes), the “metabolic stability” value was “high metabolic stability” and the microsomal CLint at 2 μM is 10 µL/min/mg.

Turning to `Brc1cn(-c2csc(N3CCOCC3)n2)cn1` [Example 48, 4-[4-(4-bromoimidazol-1-yl)thiazol-2-yl]morpholine], in “in vitro” (human, microsomes), the microsomal CLint at 2 μM was 81 µL/min/mg.

Compound `Clc1c(Br)ncn1-c1csc(N2C[C@H]3CC[C@@H](C2)O3)n1` [Example 24, (1R,5S)-3-[4-(4-bromo-5-chloro-imidazol-1-yl)thiazol-2-yl]-8-oxa-3-azabicyclo[3.2.1]octane] yielded an IC50 in series [1] (LNCaP eGFP cell line) of 0.7 µM. Also, in the series “in vitro” (human, microsomes), the “metabolic stability” value was “high metabolic stability” and the microsomal CLint at 2 μM was 13 µL/min/mg.

Turning to `Brc1cn(-c2csc(N3CCOC4(COC4)C3)n2)c(Br)n1` [Example 39, 8-[4-(2,4-dibromoimidazol-1-yl)thiazol-2-yl]-2,5-dioxa-8-azaspiro[3.5]nonane], the inhibition at 1 µM in series [1] is 34%. Moreover, the microsomal CLint at 2 μM in “in vitro” (human, microsomes) amounted to 18 µL/min/mg.

`CCC1(CC)CN(c2nc(-n3cc(Br)nc3Br)cs2)CCO1` [Example 37, 4-[4-(2,4-dibromoimidazol-1-yl)thiazol-2-yl]-2,2-diethyl-morpholine]: the inhibition at 1 µM in series [1] is 33%. This compound also displayed a microsomal CLint at 2 μM in the series “in vitro” (human, microsomes) of 129 µL/min/mg.

Take `Cc1c(Br)ncn1-c1csc(N2CCOCC2)n1` [Example 53, 4-[4-(4-bromo-5-methyl-imidazol-1-yl)thiazol-2-yl]morpholine]: in series [1], the inhibition at 1 µM amounted to 44%. In addition, the microsomal CLint at 2 μM in “in vitro” (human, microsomes) worked out at 72 µL/min/mg.

For the compound `Clc1c(Br)ncn1-c1csc(N2CCOCC2)n1` [Example 45, 4-[4-(4-bromo-5-chloro-imidazol-1-yl)thiazol-2-yl]morpholine], in the series “in vitro” (human, microsomes), the microsomal CLint at 2 μM was 185 µL/min/mg.

Turning to `CC(C)C1CN(c2nc(-n3cc(Br)nc3Br)cs2)CCO1` (stereo not drawn) [Example 30, 4-[4-(2,4-dibromoimidazol-1-yl)thiazol-2-yl]-2-isopropyl-morpholine], half-maximal inhibition in series [1] (LNCaP eGFP cell line) (IC50) required 6.65 µM.

Consider `Brc1cn(-c2csc(N3C[C@H]4CC[C@@H](C3)O4)n2)c(Br)n1` [Example 13, (1S,5R)-3-[4-(2,4-dibromoimidazol-1-yl)thiazol-2-yl]-8-oxa-3-azabicyclo[3.2.1]octane], for which, in series [1] (LNCaP eGFP cell line), the half-maximal inhibitory concentration (IC50) was 0.11 µM.
